From ChEMBL document CHEMBL4507262, “Data for DCP probe A-1596586” (2021)

Experiments:
[1] = target: Calcium/calmodulin-dependent protein kinase type IV (Homo sapiens) (UniProt Q16566); settings: Compound concentration 1000.0 nM
[2] = target: Cyclin-dependent kinase 2 (Homo sapiens) (UniProt P24941); settings: Compound concentration 1000.0 nM
[3] = target: cGMP-dependent protein kinase 2 (Homo sapiens) (UniProt Q13237); settings: Compound concentration 1000.0 nM
[4] = target: Hepatocyte growth factor receptor (Homo sapiens) (UniProt P08581); settings: Compound concentration 1000.0 nM
[5] = target: Inhibitor of nuclear factor kappa-B kinase subunit epsilon (Homo sapiens) (UniProt Q14164); settings: Compound concentration 1000.0 nM
[6] = target: Tyrosine-protein kinase Srms (Homo sapiens) (UniProt Q9H3Y6); settings: Compound concentration 1000.0 nM
[7] = target: Mitogen-activated protein kinase 9 (Homo sapiens) (UniProt P45984); settings: Compound concentration 1000.0 nM
[8] = system: Tyrosine-protein kinase ABL1 (Homo sapiens), P00519 [F317L]; settings: Compound concentration 1000.0 nM
[9] = target: Sodium-dependent dopamine transporter (Homo sapiens) (UniProt Q01959); experiment: dopamine transporter (h) Eurofins-Cerep binding assay; design: ligand concentration 4 nM; settings: filed as antagonist, Compound concentration 10.0 uM
[10] = target: Serine/threonine-protein kinase pim-1 (Homo sapiens) (UniProt P11309); settings: Compound concentration 1000.0 nM
Serine/threonine-protein kinase pim-1 (Homo sapiens), sequence (P11309 whole entry, looked up): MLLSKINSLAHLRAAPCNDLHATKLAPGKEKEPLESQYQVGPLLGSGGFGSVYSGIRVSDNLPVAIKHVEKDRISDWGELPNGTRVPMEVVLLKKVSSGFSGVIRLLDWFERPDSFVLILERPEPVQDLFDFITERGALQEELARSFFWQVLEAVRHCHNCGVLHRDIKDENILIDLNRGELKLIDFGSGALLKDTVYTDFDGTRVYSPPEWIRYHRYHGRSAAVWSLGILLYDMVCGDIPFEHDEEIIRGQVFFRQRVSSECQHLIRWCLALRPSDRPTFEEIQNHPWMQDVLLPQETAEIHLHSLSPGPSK

[11] = target: Receptor-interacting serine/threonine-protein kinase 4 (Homo sapiens) (UniProt P57078); settings: Compound concentration 1000.0 nM
[12] = target: Tyrosine-protein kinase HCK (Homo sapiens) (UniProt P08631); settings: Compound concentration 1000.0 nM
[13] = target: Serine/threonine-protein kinase PRP4 homolog (Homo sapiens) (UniProt Q13523); settings: Compound concentration 1000.0 nM
Serine/threonine-protein kinase PRP4 homolog (Homo sapiens), sequence (Q13523 whole entry): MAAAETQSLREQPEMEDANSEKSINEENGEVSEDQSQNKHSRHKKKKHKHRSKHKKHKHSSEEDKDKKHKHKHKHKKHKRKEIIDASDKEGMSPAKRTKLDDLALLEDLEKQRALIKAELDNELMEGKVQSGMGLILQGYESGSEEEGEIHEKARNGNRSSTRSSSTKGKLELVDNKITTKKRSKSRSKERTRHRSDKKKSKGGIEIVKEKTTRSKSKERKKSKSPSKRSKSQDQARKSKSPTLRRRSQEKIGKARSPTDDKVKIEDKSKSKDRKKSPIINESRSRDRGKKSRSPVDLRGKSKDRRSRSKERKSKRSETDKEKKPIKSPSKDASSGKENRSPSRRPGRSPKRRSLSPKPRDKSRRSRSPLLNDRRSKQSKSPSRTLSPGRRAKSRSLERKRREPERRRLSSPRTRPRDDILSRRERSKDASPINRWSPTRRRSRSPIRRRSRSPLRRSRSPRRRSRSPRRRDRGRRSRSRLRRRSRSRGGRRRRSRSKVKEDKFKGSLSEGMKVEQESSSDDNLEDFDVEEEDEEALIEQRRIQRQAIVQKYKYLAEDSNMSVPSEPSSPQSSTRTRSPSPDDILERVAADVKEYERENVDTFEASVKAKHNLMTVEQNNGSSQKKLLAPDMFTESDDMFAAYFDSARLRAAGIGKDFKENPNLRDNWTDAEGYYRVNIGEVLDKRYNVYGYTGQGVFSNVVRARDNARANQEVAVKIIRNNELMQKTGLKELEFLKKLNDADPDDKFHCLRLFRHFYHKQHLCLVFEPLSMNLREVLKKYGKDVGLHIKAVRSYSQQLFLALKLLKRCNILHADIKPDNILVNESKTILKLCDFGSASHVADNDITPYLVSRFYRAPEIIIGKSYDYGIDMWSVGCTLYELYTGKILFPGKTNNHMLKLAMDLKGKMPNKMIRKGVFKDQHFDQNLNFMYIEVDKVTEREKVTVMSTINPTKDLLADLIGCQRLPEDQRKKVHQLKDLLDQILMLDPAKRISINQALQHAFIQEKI

[14] = target: Serine/threonine-protein kinase 3 (Homo sapiens) (UniProt Q13188); settings: Compound concentration 1000.0 nM
Serine/threonine-protein kinase 3 (Homo sapiens), sequence (Q13188 whole entry): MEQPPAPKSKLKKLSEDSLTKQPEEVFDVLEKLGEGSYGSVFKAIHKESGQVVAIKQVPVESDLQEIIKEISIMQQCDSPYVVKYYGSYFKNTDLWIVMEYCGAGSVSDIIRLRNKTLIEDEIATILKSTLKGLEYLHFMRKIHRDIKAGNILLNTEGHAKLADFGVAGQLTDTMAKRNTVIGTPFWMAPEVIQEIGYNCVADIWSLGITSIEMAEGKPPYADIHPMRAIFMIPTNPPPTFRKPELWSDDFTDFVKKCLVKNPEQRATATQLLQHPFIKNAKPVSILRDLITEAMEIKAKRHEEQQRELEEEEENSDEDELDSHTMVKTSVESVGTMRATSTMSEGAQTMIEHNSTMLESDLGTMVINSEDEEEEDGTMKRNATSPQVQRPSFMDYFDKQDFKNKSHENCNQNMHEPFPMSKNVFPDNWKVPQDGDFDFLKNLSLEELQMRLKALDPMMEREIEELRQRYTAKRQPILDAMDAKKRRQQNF

[15] = target: Tyrosine-protein kinase SYK (Homo sapiens) (UniProt P43405); settings: Compound concentration 1000.0 nM
[16] = target: Myosin light chain kinase family member 4 (Homo sapiens) (UniProt Q86YV6); settings: Compound concentration 1000.0 nM
[17] = target: Serine/threonine-protein kinase SIK1 (Homo sapiens) (UniProt P57059); settings: Compound concentration 1000.0 nM
Serine/threonine-protein kinase SIK1 (Homo sapiens), sequence (P57059 whole entry): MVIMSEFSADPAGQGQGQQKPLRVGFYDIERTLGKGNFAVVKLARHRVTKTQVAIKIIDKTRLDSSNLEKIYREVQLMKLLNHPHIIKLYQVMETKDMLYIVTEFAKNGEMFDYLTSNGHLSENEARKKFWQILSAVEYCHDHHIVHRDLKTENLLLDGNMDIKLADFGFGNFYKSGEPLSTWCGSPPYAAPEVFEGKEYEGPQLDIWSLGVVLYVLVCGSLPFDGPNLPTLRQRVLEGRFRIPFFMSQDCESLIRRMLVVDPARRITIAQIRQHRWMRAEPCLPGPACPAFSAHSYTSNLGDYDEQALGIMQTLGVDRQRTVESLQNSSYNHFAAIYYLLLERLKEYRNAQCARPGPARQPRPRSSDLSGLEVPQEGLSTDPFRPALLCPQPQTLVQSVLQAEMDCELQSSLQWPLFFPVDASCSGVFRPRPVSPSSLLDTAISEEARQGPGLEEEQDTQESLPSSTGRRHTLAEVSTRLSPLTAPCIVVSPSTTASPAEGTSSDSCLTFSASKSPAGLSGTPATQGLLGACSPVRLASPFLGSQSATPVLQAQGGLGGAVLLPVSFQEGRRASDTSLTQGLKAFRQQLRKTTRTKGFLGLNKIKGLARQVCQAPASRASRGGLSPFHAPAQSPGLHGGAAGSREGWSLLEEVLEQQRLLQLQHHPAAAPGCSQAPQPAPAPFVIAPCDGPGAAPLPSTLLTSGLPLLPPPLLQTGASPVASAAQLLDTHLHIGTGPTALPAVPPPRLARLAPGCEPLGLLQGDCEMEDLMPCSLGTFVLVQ

[18] = target: Prostaglandin G/H synthase 2 (Homo sapiens) (UniProt P35354); experiment: COX2(h) Eurofins-Cerep enzyme and uptake assay; settings: Compound concentration 10.0 uM
[19] = target: Serine/threonine-protein kinase Chk2 (Homo sapiens) (UniProt O96017); settings: Compound concentration 1000.0 nM
Serine/threonine-protein kinase Chk2 (Homo sapiens), sequence (O96017 whole entry): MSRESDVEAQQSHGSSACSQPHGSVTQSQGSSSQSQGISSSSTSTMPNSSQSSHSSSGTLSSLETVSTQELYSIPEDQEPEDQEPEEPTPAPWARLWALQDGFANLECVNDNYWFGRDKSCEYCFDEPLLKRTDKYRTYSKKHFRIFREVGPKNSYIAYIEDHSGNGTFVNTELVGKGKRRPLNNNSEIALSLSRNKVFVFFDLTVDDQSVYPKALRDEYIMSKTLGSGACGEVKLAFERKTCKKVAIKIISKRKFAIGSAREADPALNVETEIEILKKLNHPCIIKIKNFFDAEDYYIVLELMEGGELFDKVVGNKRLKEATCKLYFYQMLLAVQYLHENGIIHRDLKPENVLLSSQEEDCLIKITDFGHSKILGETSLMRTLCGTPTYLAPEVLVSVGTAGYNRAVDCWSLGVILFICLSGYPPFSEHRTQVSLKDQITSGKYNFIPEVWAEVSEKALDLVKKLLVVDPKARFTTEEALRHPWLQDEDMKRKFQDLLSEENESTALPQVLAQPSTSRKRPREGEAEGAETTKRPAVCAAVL

[20] = target: Ribosomal protein S6 kinase alpha-6 (Homo sapiens) (UniProt Q9UK32); settings: Compound concentration 1000.0 nM
[21] = target: Muscarinic acetylcholine receptor M1 (Homo sapiens) (UniProt P11229); experiment: M1 (h) Eurofins-Cerep binding assay; design: ligand concentration 2 nM; settings: filed as antagonist, Compound concentration 10.0 uM
[22] = target: Dual specificity tyrosine-phosphorylation-regulated kinase 1B (Homo sapiens) (UniProt Q9Y463); settings: Compound concentration 1000.0 nM
[23] = target: Activin receptor type-2B (Homo sapiens) (UniProt Q13705); settings: Compound concentration 1000.0 nM
[24] = system: Epidermal growth factor receptor (Homo sapiens), P00533 [UNDEFINED MUTATION]; settings: Compound concentration 1000.0 nM
[25] = target: Sodium/potassium-transporting ATPase (Sus scrofa) (UniProt P05027+P05024+D2WKD8+D2WKD7+F1ST41); experiment: ATPase (Na+/K+) Eurofins-Cerep enzyme and uptake assay; assay type: protein-complex assay; settings: Compound concentration 10.0 uM
[26] = target: Calcium/calmodulin-dependent protein kinase type II subunit delta (Homo sapiens) (UniProt Q13557); settings: Compound concentration 1000.0 nM
[27] = target: Serine/threonine-protein kinase TAO1 (Homo sapiens) (UniProt Q7L7X3); settings: Compound concentration 1000.0 nM
[28] = target: Serine/threonine-protein kinase DCLK2 (Homo sapiens) (UniProt Q8N568); settings: Compound concentration 1000.0 nM
[29] = target: Serine/threonine-protein kinase BRSK2 (Homo sapiens) (UniProt Q8IWQ3); settings: Compound concentration 1000.0 nM
[30] = target: RAC-beta serine/threonine-protein kinase (Homo sapiens) (UniProt P31751); settings: Compound concentration 1000.0 nM
[31] = target: GABA-A receptor; anion channel (Rattus norvegicus) (UniProt O09028+P15431+P18506+P18508+P19969+P20236+P23574+P23576+P28471+P28473+P30191+P62813+P63079+P63138+Q91ZM7+Q9ES14); experiment: Cl- channel (GABA-gated) Eurofins-Cerep binding assay; assay type: protein-complex assay; design: ligand concentration 3 nM; settings: filed as antagonist, Compound concentration 10.0 uM
[32] = system: ALK tyrosine kinase receptor (Homo sapiens), Q9UM73 [C1156Y]; settings: Compound concentration 1000.0 nM
[33] = target: Mitogen-activated protein kinase kinase kinase 3 (Homo sapiens) (UniProt Q99759); settings: Compound concentration 1000.0 nM
[34] = system: Epidermal growth factor receptor (Homo sapiens), P00533 [G719S]; settings: Compound concentration 1000.0 nM
[35] = target: Calcitonin-gene-related peptide receptor, CALCRL/RAMP1 (Homo sapiens) (UniProt O60894+Q16602); experiment: CGRP (h) Eurofins-Cerep binding assay; assay type: protein-complex assay; design: ligand concentration 0.03 nM; settings: filed as agonist, Compound concentration 10.0 uM
[36] = target: Ribosomal protein S6 kinase alpha-4 (Homo sapiens) (UniProt O75676); settings: Compound concentration 1000.0 nM
[37] = target: Serine/threonine-protein kinase PLK2 (Homo sapiens) (UniProt Q9NYY3); settings: Compound concentration 1000.0 nM
[38] = target: Serine/threonine-protein kinase D2 (Homo sapiens) (UniProt Q9BZL6); settings: Compound concentration 1000.0 nM
Serine/threonine-protein kinase D2 (Homo sapiens), sequence (Q9BZL6 whole entry): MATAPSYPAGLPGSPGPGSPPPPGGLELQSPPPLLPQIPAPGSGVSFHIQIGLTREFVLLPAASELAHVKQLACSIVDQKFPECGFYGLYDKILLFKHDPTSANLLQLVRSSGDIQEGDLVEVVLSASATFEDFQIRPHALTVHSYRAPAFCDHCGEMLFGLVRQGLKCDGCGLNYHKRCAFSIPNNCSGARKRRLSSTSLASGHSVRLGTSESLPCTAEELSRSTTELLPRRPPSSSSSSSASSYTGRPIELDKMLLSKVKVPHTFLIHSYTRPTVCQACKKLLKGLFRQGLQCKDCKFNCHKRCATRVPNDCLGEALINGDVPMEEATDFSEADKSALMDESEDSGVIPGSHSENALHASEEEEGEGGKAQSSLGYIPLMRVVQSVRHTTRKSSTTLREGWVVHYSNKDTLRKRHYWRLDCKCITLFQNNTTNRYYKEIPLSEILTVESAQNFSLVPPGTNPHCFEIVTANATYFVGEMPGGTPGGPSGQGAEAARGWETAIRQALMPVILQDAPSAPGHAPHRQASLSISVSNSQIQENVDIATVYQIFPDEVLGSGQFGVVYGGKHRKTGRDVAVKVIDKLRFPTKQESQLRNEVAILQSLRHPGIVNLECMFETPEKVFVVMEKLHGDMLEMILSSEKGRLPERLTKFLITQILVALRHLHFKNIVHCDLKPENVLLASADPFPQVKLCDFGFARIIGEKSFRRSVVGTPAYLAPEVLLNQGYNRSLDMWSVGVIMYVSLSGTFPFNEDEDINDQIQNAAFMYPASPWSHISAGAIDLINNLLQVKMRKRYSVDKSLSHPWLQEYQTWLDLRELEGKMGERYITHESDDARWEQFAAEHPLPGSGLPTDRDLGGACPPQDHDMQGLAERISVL

[39] = target: Ephrin type-A receptor 3 (Homo sapiens) (UniProt P29320); settings: Compound concentration 1000.0 nM
Ephrin type-A receptor 3 (Homo sapiens), sequence (P29320 whole entry): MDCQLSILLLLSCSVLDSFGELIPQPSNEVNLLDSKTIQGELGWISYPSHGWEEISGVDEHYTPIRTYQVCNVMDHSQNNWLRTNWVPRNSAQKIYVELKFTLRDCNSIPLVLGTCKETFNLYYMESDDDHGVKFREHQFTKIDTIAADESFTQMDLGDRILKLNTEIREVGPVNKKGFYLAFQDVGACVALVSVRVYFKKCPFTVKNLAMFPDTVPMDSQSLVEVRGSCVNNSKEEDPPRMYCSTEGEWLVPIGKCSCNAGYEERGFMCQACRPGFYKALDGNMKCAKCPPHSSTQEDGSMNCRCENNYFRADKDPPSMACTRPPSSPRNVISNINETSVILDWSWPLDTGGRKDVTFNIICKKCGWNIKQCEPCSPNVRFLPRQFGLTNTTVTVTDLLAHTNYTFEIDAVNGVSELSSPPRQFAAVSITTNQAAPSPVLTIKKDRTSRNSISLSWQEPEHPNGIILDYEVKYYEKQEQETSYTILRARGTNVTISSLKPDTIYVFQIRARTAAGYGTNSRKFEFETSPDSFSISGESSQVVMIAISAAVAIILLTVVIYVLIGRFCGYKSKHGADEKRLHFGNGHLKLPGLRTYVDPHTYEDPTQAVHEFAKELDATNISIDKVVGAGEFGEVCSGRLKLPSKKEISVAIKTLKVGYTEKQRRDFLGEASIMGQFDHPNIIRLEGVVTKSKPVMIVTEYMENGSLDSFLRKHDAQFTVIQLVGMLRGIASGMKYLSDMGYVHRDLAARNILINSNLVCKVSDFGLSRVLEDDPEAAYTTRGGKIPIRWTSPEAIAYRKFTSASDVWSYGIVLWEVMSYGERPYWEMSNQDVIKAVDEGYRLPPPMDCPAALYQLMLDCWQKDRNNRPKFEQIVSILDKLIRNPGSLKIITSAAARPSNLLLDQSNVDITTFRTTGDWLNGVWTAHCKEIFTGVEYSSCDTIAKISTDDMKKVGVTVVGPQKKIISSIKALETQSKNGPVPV

[40] = target: Tyrosine-protein kinase JAK2 (Homo sapiens) (UniProt O60674); settings: Compound concentration 1000.0 nM
[41] = target: Calcium/calmodulin-dependent protein kinase type II subunit gamma (Homo sapiens) (UniProt Q13555); settings: Compound concentration 1000.0 nM
[42] = target: Protein-tyrosine kinase 2-beta (Homo sapiens) (UniProt Q14289); settings: Compound concentration 1000.0 nM
[43] = target: 5-hydroxytryptamine receptor 2B (Homo sapiens) (UniProt P41595); settings: Compound concentration 10.0 uM

## COc1ccc2c(c1)O[C@@H](c1ccc(OC)c(OC)c1)C[C@H]2NC(=O)C1(c2ccc3c(c2)OC(F)(F)O3)CC1 [A-1596586]
[1]
  residual activity: 89%
[2]
  residual activity: 99%
[3]
  residual activity: 96%
[4]
  residual activity: 100%
[5]
  residual activity: 70%
[6]
  residual activity: 94%
[7]
  residual activity: 83%
[8]
  residual activity: 76%
[9]
  % Inhibition of Control Specific Binding (Mean n=2): 6.1%
[10]
  residual activity: 91%
[11]
  residual activity: 67%
[12]
  residual activity: 88%
[13]
  residual activity: 83%
[14]
  residual activity: 96%
[15]
  residual activity: 100%
[16]
  residual activity: 97%
[17]
  residual activity: 100%
[18]
  % Inhibition of Control Values (Mean n=2): -9.3%
[19]
  residual activity: 84%
[20]
  residual activity: 84%
[21]
  % Inhibition of Control Specific Binding (Mean n=2): -20.6%
[22]
  residual activity: 100%
[23]
  residual activity: 96%
[24]
  residual activity: 62%
[25]
  % Inhibition of Control Values (Mean n=2): 0.8%
[26]
  residual activity: 91%
[27]
  residual activity: 93%
[28]
  residual activity: 86%
[29]
  residual activity: 100%
[30]
  residual activity: 100%
[31]
  % Inhibition of Control Specific Binding (Mean n=2): 57.7%
[32]
  residual activity: 84%
[33]
  residual activity: 84%
[34]
  residual activity: 91%
[35]
  % Inhibition of Control Specific Binding (Mean n=2): -7%
[36]
  residual activity: 81%
[37]
  residual activity: 81%
[38]
  residual activity: 100%
[39]
  residual activity: 91%
[40]
  residual activity: 75%
[41]
  residual activity: 96%
[42]
  residual activity: 100%
[43]
  inhibition: 1.62%

## COc1ccc2c(c1)O[C@H](c1ccc(OC)c(OC)c1)C[C@@H]2NC(=O)C1(c2ccc3c(c2)OC(F)(F)O3)CC1 [A-1596584]
[1]
  residual activity: 100%
[2]
  residual activity: 100%
[3]
  residual activity: 89%
[4]
  residual activity: 87%
[5]
  residual activity: 96%
[6]
  residual activity: 87%
[7]
  residual activity: 92%
[8]
  residual activity: 100%
[9]
  % Inhibition of Control Specific Binding (Mean n=2): 25.8%
[10]
  residual activity: 100%
[11]
  residual activity: 75%
[12]
  residual activity: 100%
[13]
  residual activity: 56%
[14]
  residual activity: 100%
[15]
  residual activity: 100%
[16]
  residual activity: 100%
[17]
  residual activity: 100%
[18]
  % Inhibition of Control Values (Mean n=2): -17.9%
[19]
  residual activity: 100%
[20]
  residual activity: 87%
[21]
  % Inhibition of Control Specific Binding (Mean n=2): -28%
[22]
  residual activity: 91%
[23]
  residual activity: 100%
[24]
  residual activity: 59%
[25]
  % Inhibition of Control Values (Mean n=2): 2.2%
[26]
  residual activity: 100%
[27]
  residual activity: 100%
[28]
  residual activity: 98%
[29]
  residual activity: 88%
[30]
  residual activity: 96%
[31]
  % Inhibition of Control Specific Binding (Mean n=2): 82.4%
[32]
  residual activity: 100%
[33]
  residual activity: 87%
[34]
  residual activity: 99%
[35]
  % Inhibition of Control Specific Binding (Mean n=2): -2.5%
[36]
  residual activity: 100%
[37]
  residual activity: 100%
[38]
  residual activity: 100%
[39]
  residual activity: 100%
[40]
  residual activity: 98%
[41]
  residual activity: 100%
[42]
  residual activity: 100%
[43]
  inhibition: -0.83%
